Test results reported in patent US8759356B2, “Compounds and methods for controlling fungi” (Dow AgroSciences, LLC., priority 2009, dated 2014).

Tests used:
[1] = system: Septoria tritici (SEPTTR); assay: Three day curative test against Septoria blotch of wheat; assay type: in vivo; conditions: wheat 'Yuma' seedlings, treated three days after inoculation
Experimental: (§1) It will be understood by those in the art that the efficacy of the compounds against the foregoing fungi establishes the general utility of the compounds as fungicides. The activity of the compounds as effective fungicides was determined by applying the compounds to plants and observing control of fungal disease. The compounds were formulated at rates of 50 ppm and 200 ppm in 10 vol. % acetone plus 90 vol. % Triton X water (deionized water 99.99 wt %+0.01 wt % Triton X100), giving a “formulated test compound.” Formulated test compounds were applied to plants using a turntable sprayer fitted with two opposing air atomization nozzles which delivered approximately 1500 L/ha of spray volume.
Measuring the Curative Effect of Various Compounds Against Septoria Blotch of Wheat (Causal Agent Bayer Code SEPTTR).
Each pot contained 3-10 seedlings. These plants were inoculated with an aqueous spore suspension of Septoria tritici and the plants were kept in high humidity (one day in a dark dew chamber followed by two days in a lighted dew chamber) to permit the spores to germinate and to infect the leaf. The plants were then removed form the dew chamber and allowed to dry. After drying, the inoculated plants were sprayed until wet with the formulated test compound. On the following day, the plants were transferred to a greenhouse until disease developed on untreated control plants. These tests were carried out using two different levels of the compound, 50 ppm and 200 ppm, see Table 1.
(§2) Disease control was determined by visually estimating the percent disease severity in treated and untreated pots 7 to 24 days after inoculation, depending on speed of disease development. Evaluations were typically made 7 or 8 days after inoculation for PUCCRT and 18 to 22 days after inoculation for SEPTTR. Percent disease control (% DC) was calculated by: % DC=(1−% Disease severity treated/% disease severity untreated)*100.

[2] = system: Puccinia recondita tritici (PUCCRT); assay: One day protectant test against leaf rust of wheat; assay type: in vivo; conditions: wheat 'Yuma' seedlings, inoculated the day after treatment
Experimental: as §1
(§3) Again referring to Table 1, tests were carried out to determine a given exemplary compound's ability to prevent or at least limit a fungal infection as follows. All plants in the study were inoculated with spores of the fungus in this case either PUCCRT or SEPTTR) the day after treatment with the putative fungicide. Next, the plants were incubated in an environment conducive to disease development. Disease severity was evaluated 7 to 25 days later, depending on the speed of disease development. The following experiments were performed in the laboratory to determine the fungicidal efficacy of the compounds of the invention.
Measuring the Protective Effect of Various Compounds Against Leaf Rust of Wheat (Causal Agent Bayer Code PUCCRT).
Each pot contained 3-8 seedlings. These plants were sprayed until wet with the formulated test compounds. On the following day, the leaves were inoculated with an aqueous spore suspension of Puccinia recondita tritici and the plants were kept in high humidity overnight to permit the spores to germinate and to infect the leaf. The plants were then transferred to a greenhouse until disease developed on untreated control plants. These tests were carried out using two different levels of the compound, 50 ppm and 200 ppm, see Table 1.
as §2

[3] = system: Septoria tritici (SEPTTR); assay: One day protectant test against Septoria blotch of wheat; assay type: in vivo; conditions: wheat 'Yuma' seedlings, inoculated the day after treatment
Experimental: as §1, §3
Measuring the Preventative Effect of Various Compounds Against Septoria Blotch of Wheat (Causal Agent Bayer Code SEPTTR).
Each pot contained 3-10 seedlings. These plants were sprayed until wet with the formulated test compound. On the following day, the leaves were inoculated with an aqueous spore suspension of Septoria tritici and the plants were kept in high humidity (one day in a dark dew chamber followed by three days in a lighted dew chamber) to permit the spores to germinate and to infect the leaf. The plants were then transferred to a greenhouse until disease developed on untreated control plants. These tests were carried out using two different levels of the compound, 50 ppm and 200 ppm, see Table 1.
as §2

With `Clc1cnc(-c2ccccc2)nc1NC1CC1` [compound 5] the “Percent Disease Control, Three Day Curative, SEPTTR” value ([1]; 50 ppm spray) was 0%, the “Percent Disease Control, Three Day Curative, SEPTTR” value ([1]; 200 ppm spray) was 0% and the “Percent Disease Control, One Day Protectant, PUCCRT” value (“Percent Disease Control … PUCCRT” below) ([2]; 50 ppm spray) was 99%. For the same compound, the “Percent Disease Control … PUCCRT” value ([2]; 200 ppm spray) was 99%, the “Percent Disease Control, One Day Protectant, SEPTTR” value ([3]; 50 ppm spray) was 38% and the “Percent Disease Control, One Day Protectant, SEPTTR” value ([3]; 200 ppm spray) was 90%.
In the case of `Fc1cc(Cl)ccc1-c1ncc(Cl)c(NC2CC2)n1` [compound 4], the “Percent Disease Control, Three Day Curative, SEPTTR” value ([1]; 50 ppm spray) is reported as 0%, the “Percent Disease Control, Three Day Curative, SEPTTR” value ([1]; 200 ppm spray) is reported as 18% and the “Percent Disease Control … PUCCRT” value ([2]; 50 ppm spray) is reported as 50%. The “Percent Disease Control … PUCCRT” value ([2]; 200 ppm spray) was 99%, the “Percent Disease Control, One Day Protectant, SEPTTR” value ([3]; 50 ppm spray) was 38% and the “Percent Disease Control, One Day Protectant, SEPTTR” value ([3]; 200 ppm spray) was 86%.
For `Clc1ccc(-c2ncc(Cl)c(NC3CC3)n2)cc1Cl` [compound 2], the “Percent Disease Control, Three Day Curative, SEPTTR” value ([1]; 50 ppm spray) was 62%, the “Percent Disease Control, Three Day Curative, SEPTTR” value ([1]; 200 ppm spray) was 72% and the “Percent Disease Control … PUCCRT” value ([2]; 50 ppm spray) was 0%. For the same compound, the “Percent Disease Control … PUCCRT” value ([2]; 200 ppm spray) was 0%, the “Percent Disease Control, One Day Protectant, SEPTTR” value ([3]; 50 ppm spray) was 0% and the “Percent Disease Control, One Day Protectant, SEPTTR” value ([3]; 200 ppm spray) was 35%.
With `Clc1ccc(-c2ncc(Cl)c(NC3CC3)n2)cc1` [Example 1] the “Percent Disease Control, Three Day Curative, SEPTTR” value ([1]; 50 ppm spray) was 0%, the “Percent Disease Control, Three Day Curative, SEPTTR” value ([1]; 200 ppm spray) was 0% and the “Percent Disease Control … PUCCRT” value ([2]; 50 ppm spray) was 93%. The “Percent Disease Control … PUCCRT” value ([2]; 200 ppm spray) was 97%, the “Percent Disease Control, One Day Protectant, SEPTTR” value ([3]; 50 ppm spray) was 90% and the “Percent Disease Control, One Day Protectant, SEPTTR” value ([3]; 200 ppm spray) was 97%. The melting point was 103 to 105 °C.
In the case of `Cc1ccc(-c2ncc(Cl)c(NC3CC3)n2)cc1` [compound 6], the “Percent Disease Control, Three Day Curative, SEPTTR” value ([1]; 50 ppm spray) is reported as 0%, the “Percent Disease Control, Three Day Curative, SEPTTR” value ([1]; 200 ppm spray) is reported as 27% and the “Percent Disease Control … PUCCRT” value ([2]; 50 ppm spray) is reported as 97%. The “Percent Disease Control … PUCCRT” value ([2]; 200 ppm spray) was 99%, the “Percent Disease Control, One Day Protectant, SEPTTR” value ([3]; 50 ppm spray) was 65% and the “Percent Disease Control, One Day Protectant, SEPTTR” value ([3]; 200 ppm spray) was 95%.
In the case of `Clc1ccc(-c2nc(NC3CC3)ncc2Cl)cc1` [compound 7], the “Percent Disease Control, Three Day Curative, SEPTTR” value ([1]; 50 ppm spray) is reported as 50%, the “Percent Disease Control, Three Day Curative, SEPTTR” value ([1]; 200 ppm spray) is reported as 50% and the “Percent Disease Control … PUCCRT” value ([2]; 50 ppm spray) is reported as 53%. For the same compound, the “Percent Disease Control … PUCCRT” value ([2]; 200 ppm spray) was 0%, the “Percent Disease Control, One Day Protectant, SEPTTR” value ([3]; 50 ppm spray) was 91% and the “Percent Disease Control, One Day Protectant, SEPTTR” value ([3]; 200 ppm spray) was 61%.
